Assay results: PMC9525273 (Nature Communications, 2022)

Experiments:
[1] = tested on: Dd2-B2 parasites; test: P. falciparum proliferation assay (72 h, flow cytometry, SYBR Green I/MitoTracker); format: cell-based; settings: Plasmodium falciparum, DD2, read-out: IC50 value
Protocol: (§1) Two types of parasite proliferation assays were employed in this study, with both yielding highly consistent results. For the NF54-based lines and Dd2-B2-PfATP4^G358S and its parent, assays were initiated with cultures containing predominantly ring-stage parasites with a parasitaemia of 0.3% and a haematocrit of 1%. All assays using NF54 were performed in culture media containing 10% O + human serum. The duration of the assays was 72 h and the concentration of DMSO was <0.5% (v/v). Serial dilutions of the test compounds were performed using a Tecan D300e digital dispenser, with parasite cultures added manually. Parasite survival was assessed by flow cytometry on an Intellicyt iQue3 (Essen Bioscience), with 1× SYBR Green I (Invitrogen) and 200 nM MitoTracker Deep Red FM (Invitrogen) used to stain the nucleus and the mitochondria in live parasites, respectively. The gating strategy used to quantify parasite survival, performed using FlowJo version 10 (FlowJo LLC.), is illustrated in Supplementary Fig. 9. IC50 and IC90 values were calculated by linear interpolation of the dose-response data.

[2] = tested on: Dd2-B2-PfATP4^G358S parasites; test: as above; format: cell-based; settings: Plasmodium falciparum; Dd2-B2-PfATP4G358S; mean ± SEM
Protocol: as §1

[3] = molecular target: T1, TgATP4^G419S-HA (membranes from T. gondii tachyzoites) (Toxoplasma gondii, UniProt B9QMJ0, G419S); test: Membrane ATPase assay, ATP4-associated (Na+-dependent) ATPase activity; format: biochemical; settings: for IC50 for ATP4-associated ATPase activity: membranes from TgATP4G419S-HA, mean ± SEM
T1 sequence (B9QMJ0 1-1338 G419S): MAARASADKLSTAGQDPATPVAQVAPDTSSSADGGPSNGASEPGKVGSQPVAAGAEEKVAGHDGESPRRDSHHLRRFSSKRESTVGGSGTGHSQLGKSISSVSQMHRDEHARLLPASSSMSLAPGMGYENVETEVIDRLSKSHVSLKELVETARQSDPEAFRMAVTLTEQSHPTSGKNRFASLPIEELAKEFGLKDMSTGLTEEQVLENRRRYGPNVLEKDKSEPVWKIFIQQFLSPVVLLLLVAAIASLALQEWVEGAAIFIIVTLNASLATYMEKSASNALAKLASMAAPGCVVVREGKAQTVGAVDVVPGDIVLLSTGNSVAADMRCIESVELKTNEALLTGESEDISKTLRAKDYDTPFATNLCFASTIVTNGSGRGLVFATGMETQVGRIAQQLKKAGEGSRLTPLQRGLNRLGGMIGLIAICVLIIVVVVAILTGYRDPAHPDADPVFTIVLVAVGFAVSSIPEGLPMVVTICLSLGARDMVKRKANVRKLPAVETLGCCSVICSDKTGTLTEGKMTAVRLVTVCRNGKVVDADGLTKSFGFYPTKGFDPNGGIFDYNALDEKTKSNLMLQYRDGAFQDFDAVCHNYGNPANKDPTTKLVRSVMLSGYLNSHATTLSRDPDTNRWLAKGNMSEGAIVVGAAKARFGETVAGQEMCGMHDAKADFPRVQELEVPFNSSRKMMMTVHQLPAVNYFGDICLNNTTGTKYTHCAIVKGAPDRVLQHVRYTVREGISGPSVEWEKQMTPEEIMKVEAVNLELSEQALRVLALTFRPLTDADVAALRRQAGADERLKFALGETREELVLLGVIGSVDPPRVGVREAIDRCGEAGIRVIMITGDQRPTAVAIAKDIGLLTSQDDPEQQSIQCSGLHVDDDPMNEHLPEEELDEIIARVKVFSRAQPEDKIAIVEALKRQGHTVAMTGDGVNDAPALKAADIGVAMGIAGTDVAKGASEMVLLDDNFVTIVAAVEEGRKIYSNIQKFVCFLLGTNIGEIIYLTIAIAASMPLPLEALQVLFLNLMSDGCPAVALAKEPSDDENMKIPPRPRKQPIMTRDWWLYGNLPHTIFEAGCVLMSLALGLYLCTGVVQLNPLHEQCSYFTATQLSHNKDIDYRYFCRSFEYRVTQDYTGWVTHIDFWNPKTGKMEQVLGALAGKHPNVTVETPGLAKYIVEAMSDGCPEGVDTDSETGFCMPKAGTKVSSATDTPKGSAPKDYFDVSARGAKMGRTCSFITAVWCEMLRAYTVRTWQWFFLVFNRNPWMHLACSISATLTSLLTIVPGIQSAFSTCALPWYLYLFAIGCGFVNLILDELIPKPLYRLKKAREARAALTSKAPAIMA
Protocol: Membranes from isolated P. falciparum or extracellular T. gondii parasites were prepared by lysing parasites in ice-cold deionized water containing a 1:500 dilution of Protease Inhibitor Cocktail Set III (Merck Millipore), then washing the membrane preparation three times in ice-cold deionized water (with protease inhibitors present for the first two washes)[15]. Protein concentrations in the membrane preparations were measured using a Bradford assay. The PiColorLock Gold Phosphate Detection System (Innova Biosciences) was used to measure the production of Pi from hydrolysis of ATP[15]. Membrane preparations were diluted in either a high Na^+ solution (yielding final conditions in the reactions of 150 mM NaCl, 20 mM KCl, 2 mM MgCl2, 50 mM Tris, pH 7.2) or a Na^+-free solution (yielding final conditions of 150 mM choline chloride, 20 mM KCl, 2 mM MgCl2, 50 mM Tris, pH 7.2) to achieve a total protein concentration of 50 μg/mL. […] The reactions were performed at 37 °C, and were initiated by the addition of 1 mM ATP (Na2ATP۰3H2O; MP Biomedicals) and terminated 10 min later by adding 100 μL of reaction mixture (in duplicate) to 25 μL “Gold mix” in a 96-well plate. “Stabiliser” was added 3 min later, and the plates incubated at room temperature in the dark for 60 min before measuring absorbance at 635 nm. Background values (averaged from wells containing all components, but to which ATP was not added until after the membrane was exposed to Gold mix) were subtracted from the data. For each treatment, the ATPase activity associated with the (Na^+-dependent) PfATP4 and TgATP4 proteins was calculated by subtracting data obtained in the low Na^+ condition (containing only the 2 mM Na^+ introduced on addition of 1 mM Na2ATP) from that obtained in the high Na^+ condition.

[4] = tested on: parasite lines with a G358S mutation in PfATP4; test: P. falciparum proliferation assays, statements on all lines with the G358S mutation; format: cell-based, Plasmodium falciparum
Protocol: as §1
For experiments with all other parasites, the effects of compounds of interest on parasite proliferation was measured in 96-well plates containing serial dilutions of the compounds in culture medium, with a fluorescent DNA-intercalating dye used to detect surviving parasites. The assays were initiated with erythrocytes infected with predominantly ring-stage parasites, and the starting parasitaemia and haematocrit were both 1%. […] Fluorescence was measured using a FLUOstar OPTIMA plate reader (BMG LABTECH), with OPTIMA version 2.20R2 and MARS Data Analysis Software version 3.01 R2 (BMG LABTECH).

[5] = TgATP4G419S-HA membranes, source data of Table 1 (nM there)

Compound | IC50 [1] | IC50 [2] | IC50 for inhibition of ATP4-associated ATPase activity, MEAN [3, 5] | IC50 for ATP4-associated ATPase activity [3] | IC50 ([4]; Plasmodium falciparum, all parasite lines with a G358S mutation in PfATP4 tested in this study) | IC50 for inhibition of ATP4-associated ATPase activity ([3]; TgATP4G419S-HA membranes, single experiments, source data of Table 1 (nM there)) | effect of the G358S mutation in PfATP4 on parasite susceptibility ([4]; G358S lines vs PfATP4 wild-type controls)
C[C@H]1Cc2c([nH]c3cc(Cl)c(F)cc23)[C@@]2(N1)C(=O)Nc1ccc(Cl)cc12 [Cipargamin] | 2.17 ± 0.24 nM | 1640 ± 80 nM | 287.6 | 288 ± 111 (4) (P = 0.05) nM |  |  | 
N#Cc1cc(NC(=O)[C@H]2c3ccccc3C(=O)N(CC(F)(F)F)[C@@H]2c2cccnc2)ccc1F [(+)-SJ733] | 122 ± 7 nM | 23000 ± 3200 nM | >4000 | > 4000 (3) nM | > 9000 nM | >4000 | 
C[C@H]1[C@@H](O)O[C@@H]2O[C@@]3(C)CC[C@H]4[C@H](C)CC[C@@H]1[C@@]24OO3 [Dihydroartemisinin] |  |  |  |  |  |  | no effect
